# Source: patent EP2077855B1, “THERAPEUTIC USE OF GBA2” (Yildiz, Dr. med., Yildiz, priority 2006, dated 2008)
# “And” between values parts separate entries of the source, which are not always exact repeats. Equal entries are not always repeated.
# Assays:
# [1] = molecular target: T1, human liver microsomal GBA2 activity (Homo sapiens, UniProt Q9HCG7); assay: Glucosidase activity of human liver microsomes upon addition of test compounds; type: biochemical; design: enzyme activity: unit not given here; conditions: human liver microsomes diluted 1:8 with Chaps, incubation time 15; for mean value: mean counts
# T1 construct: from tissue; host or cells: human liver microsomes
# T1 sequence (Q9HCG7 1-927): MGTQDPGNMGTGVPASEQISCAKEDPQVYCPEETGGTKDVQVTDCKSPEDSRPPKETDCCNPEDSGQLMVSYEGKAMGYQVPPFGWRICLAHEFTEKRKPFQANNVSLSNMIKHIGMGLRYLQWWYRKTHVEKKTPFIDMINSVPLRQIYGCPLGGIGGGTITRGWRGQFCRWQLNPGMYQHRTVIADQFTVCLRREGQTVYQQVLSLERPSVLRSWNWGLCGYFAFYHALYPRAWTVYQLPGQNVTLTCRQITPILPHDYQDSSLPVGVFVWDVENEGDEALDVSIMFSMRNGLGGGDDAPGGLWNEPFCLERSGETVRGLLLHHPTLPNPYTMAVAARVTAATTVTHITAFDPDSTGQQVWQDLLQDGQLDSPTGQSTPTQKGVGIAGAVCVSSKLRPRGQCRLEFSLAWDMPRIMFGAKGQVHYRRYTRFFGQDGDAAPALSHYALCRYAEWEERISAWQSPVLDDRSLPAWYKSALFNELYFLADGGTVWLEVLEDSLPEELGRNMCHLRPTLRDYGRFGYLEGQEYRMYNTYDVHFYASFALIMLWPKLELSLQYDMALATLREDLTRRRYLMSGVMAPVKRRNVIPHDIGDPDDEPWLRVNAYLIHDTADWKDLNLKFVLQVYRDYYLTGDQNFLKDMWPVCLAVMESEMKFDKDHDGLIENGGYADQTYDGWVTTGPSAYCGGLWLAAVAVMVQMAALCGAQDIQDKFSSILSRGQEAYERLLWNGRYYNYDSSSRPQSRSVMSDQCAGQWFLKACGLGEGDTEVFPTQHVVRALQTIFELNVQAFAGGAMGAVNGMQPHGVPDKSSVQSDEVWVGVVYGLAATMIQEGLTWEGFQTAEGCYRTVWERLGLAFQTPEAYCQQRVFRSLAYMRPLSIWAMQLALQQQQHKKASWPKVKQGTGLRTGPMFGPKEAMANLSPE
# Description: (§1) Following the method for measurement of glucosidase activity described in ((Matern, H. et al., J. Biol. Chem. 272:11,261-11,267 (1997), the effect of several test compounds (like bivalent cations and detergents) on the glucosidase activity of recombinant GBA2 produced in insect cells (His-tagged isolated enzyme) and of human liver microsomes was compared. The glucosidase activity of human liver was tested in a microsomal preparation. The tested compounds were: cations including nickel, zinc, cobalt, manganese, calcium, magnesium and barium; detergents including Chaps, Triton X100, taurocholate, Brij58; and phospholipids including lyso-phosphatidylcholine, sphingomyelin, phosphatidylcholine, phosphatidyl-serine, phosphatidylethanolamine and phosphatidylinositol. The enzyme activity results for the recombinant GBA2 were similar or even better than the results for human liver microsomal GBA2 activity. Representative results are summarized in Table 5; the data for the remaining test compounds is not shown. Result: Expression of GBA2 in insect cells leads to recombinant GBA2 whose glucosidase activity is similar to or even higher than the glucosidase activity of human liver microsomes. Table 5: Glucosidase activity of microsomal human liver and GBA2 from insect cells upon addition of sphingomyelin (A, B) and cobalt (C, D). The microsomal preparations were diluted 1:8 with Chaps before use. Measurements were performed in duplicate or triplicate.
# [2] = molecular target: T2, recombinant GBA2 produced in insect cells (His-tagged isolated enzyme) (Homo sapiens, UniProt Q9HCG7); assay: Glucosidase activity of recombinant GBA2 produced in insect cells upon addition of test compounds; type: biochemical; design: enzyme activity: unit not given here; conditions: insect cell produced recombinant GBA2, incubation time 15; for mean value: mean counts
# T2 construct: His tag; made in house; host or cells: insect cells
# T2 sequence (Q9HCG7 1-927): T1 sequence (Q9HCG7 1-927)
# Description: as §1
compound,measurement,setting,value
[Co+2] [cobalt],% of control,"[1]; cobalt 0,01mM",87%
same,counts,"[1]; cobalt 0,01mM","180,77 and 193,04 and 191,08"
same,enzyme activity,"[1]; cobalt 0,01mM","1,0961"
same,% of control,"[1]; cobalt 0,05mM",140%
same,counts,"[1]; cobalt 0,05mM","223,91 and 223,75 and 225,71"
same,enzyme activity,"[1]; cobalt 0,05mM","1,7647"
same,% of control,"[1]; cobalt 0,001mM",81%
same,enzyme activity,"[1]; cobalt 0,001mM","1,0240"
same,% of control,[1]; cobalt 1mM,155%
same,counts,[1]; cobalt 1mM,"234,69 and 233,72 and 236,26"
same,enzyme activity,[1]; cobalt 1mM,"1,9576"
same,% of control,"[1]; cobalt 0,005mM",84%
same,counts,"[1]; cobalt 0,005mM","192,98 and 191,68 and 174,52"
same,enzyme activity,"[1]; cobalt 0,005mM","1,0610"
same,% of control,[1]; cobalt 5mM,163%
same,counts,[1]; cobalt 5mM,"233,59 and 235,10 and 251,13"
same,enzyme activity,[1]; cobalt 5mM,"2,0510"
same,mean value,"[1]; cobalt 0,01mM","188,30"
same,mean value,"[1]; cobalt 0,05mM","224,46"
same,mean value,"[1]; cobalt 0,001mM","84,391"
same,mean value,[1]; cobalt 1mM,"234,89"
same,mean value,"[1]; cobalt 0,005mM","186,39"
same,mean value,[1]; cobalt 5mM,"239,941"
same,% of control,"[2]; cobalt 0,01mM",93%
same,counts,"[2]; cobalt 0,01mM","157,63 and 157,78"
same,enzyme activity,"[2]; cobalt 0,01mM","0,1288"
same,% of control,"[2]; cobalt 0,1mM",115%
same,counts,"[2]; cobalt 0,1mM","161,62 and 167,45"
same,enzyme activity,"[2]; cobalt 0,1mM","0,1604"
same,% of control,"[2]; cobalt 0,05mM",117%
same,counts,"[2]; cobalt 0,05mM","167,53 and 152,62 and 174,62"
same,enzyme activity,"[2]; cobalt 0,05mM","0,1622"
same,% of control,"[2]; cobalt 0,5mM",273%
same,counts,"[2]; cobalt 0,5mM","206,30 and 217,85"
same,enzyme activity,"[2]; cobalt 0,5mM","0,3802"
same,% of control,[2]; cobalt 1mM,360%
same,counts,[2]; cobalt 1mM,"237,74 and 260,51 and 216,07"
same,enzyme activity,[2]; cobalt 1mM,"0,5005"
same,% of control,[2]; cobalt 5mM,97%
same,counts,[2]; cobalt 5mM,"208,68 and 319,94"
same,enzyme activity,[2]; cobalt 5mM,"0,6216"
same,mean value,"[2]; cobalt 0,01mM","157,71"
same,mean value,"[2]; cobalt 0,1mM","164,54"
same,mean value,"[2]; cobalt 0,05mM","164,92"
same,mean value,"[2]; cobalt 0,5mM","212,08"
same,mean value,[2]; cobalt 1mM,"238,11"
same,mean value,[2]; cobalt 5mM,"264,31"
sphingomyelin,mean value,"[1]; sphingomyelin 0,3mM","195,30"
same,mean value,"[1]; sphingomyelin 0,15mM","206,72"
same,mean value,"[1]; sphingomyelin 0,75mM","206,21"
same,mean value,[1]; sphingomyelin 3mM,"214,01"
same,mean value,[1]; sphingomyelin 6mM,"208,40"
same,mean value,[1]; sphingomyelin 12mM,"195,24"
same,mean value,"[1]; sphingomyelin 1,5mM","201,66"
same,% of control,"[1]; sphingomyelin 0,3mM",68%
same,counts,"[1]; sphingomyelin 0,3mM","187,68 and 202,92"
same,enzyme activity,"[1]; sphingomyelin 0,3mM","1,4089"
same,% of control,"[1]; sphingomyelin 0,15mM",78%
same,counts,"[1]; sphingomyelin 0,15mM","215,51 and 197,93"
same,enzyme activity,"[1]; sphingomyelin 0,15mM","1,6200"
same,% of control,"[1]; sphingomyelin 0,75mM",78%
same,counts,"[1]; sphingomyelin 0,75mM","206,90 and 205,52"
same,enzyme activity,"[1]; sphingomyelin 0,75mM","1,6106"
same,% of control,[1]; sphingomyelin 3mM,85%
same,counts,[1]; sphingomyelin 3mM,"225,57 and 202,45"
same,enzyme activity,[1]; sphingomyelin 3mM,"1,7548"
same,% of control,[1]; sphingomyelin 6mM,80%
same,counts,[1]; sphingomyelin 6mM,"207,54 and 209,26"
same,enzyme activity,[1]; sphingomyelin 6mM,"1,6511"
same,% of control,[1]; sphingomyelin 12mM,68%
same,counts,[1]; sphingomyelin 12mM,"189,25 and 201,23"
same,enzyme activity,[1]; sphingomyelin 12mM,"1,4077"
same,% of control,"[1]; sphingomyelin 1,5mM",74%
same,counts,"[1]; sphingomyelin 1,5mM","207,84 and 195,48"
same,enzyme activity,"[1]; sphingomyelin 1,5mM","1,5264"
same,mean value,"[2]; sphingomyelin 0,3mM","674,56"
same,mean value,"[2]; sphingomyelin 0,15mM","591,95"
same,mean value,"[2]; sphingomyelin 0,75mM","537,54"
same,mean value,[2]; sphingomyelin 3mM,"652,37"
same,mean value,[2]; sphingomyelin 6mM,"493,49"
same,mean value,[2]; sphingomyelin 12mM,"510,93"
same,mean value,"[2]; sphingomyelin 1,5mM","643,44"
same,% of control,"[2]; sphingomyelin 0,3mM",104%
same,counts,"[2]; sphingomyelin 0,3mM","675,57 and 673,54"
same,enzyme activity,"[2]; sphingomyelin 0,3mM","2,5788"
same,% of control,"[2]; sphingomyelin 0,15mM",89%
same,counts,"[2]; sphingomyelin 0,15mM","579,66 and 604,24"
same,enzyme activity,"[2]; sphingomyelin 0,15mM","2,1969"
same,% of control,"[2]; sphingomyelin 0,75mM",79%
same,counts,"[2]; sphingomyelin 0,75mM","541,76 and 533,32"
same,enzyme activity,"[2]; sphingomyelin 0,75mM","1,9454"
same,% of control,[2]; sphingomyelin 3mM,100%
same,counts,[2]; sphingomyelin 3mM,"699,42 and 605,31"
same,enzyme activity,[2]; sphingomyelin 3mM,"2,4762"
same,% of control,[2]; sphingomyelin 6mM,70%
same,counts,[2]; sphingomyelin 6mM,"473,49 and 513,48"
same,enzyme activity,[2]; sphingomyelin 6mM,"1,7418"
same,% of control,[2]; sphingomyelin 12mM,74%
same,counts,[2]; sphingomyelin 12mM,"489,65 and 532,21"
same,enzyme activity,[2]; sphingomyelin 12mM,"1,8224"
same,% of control,"[2]; sphingomyelin 1,5mM",98%
same,counts,"[2]; sphingomyelin 1,5mM","630,13 and 656,75"
same,enzyme activity,"[2]; sphingomyelin 1,5mM","2,4349"
